The text below walks through data of patent US20200022998A1, “MEDICAL USE OF NOTCH4 OR INHIBITORS THEREOF” (BEIJING INSTITUTE OF GENOMICS, CHINESE ACADEMY OF SCIENCES, priority 2016, published 2020).

The structures appear in SMILES notation. “Also recorded” adds a separate entry of the source.

Format in all cases: cell-based, human
The test system of one assay is normal iPSC BC1. The assay can be described thus: in vitro megakaryocyte lineage differentiation of iPSC BC1 (spin-EB), flow cytometry at Day 14. As to conditions: for decrease of proportion of HSPCs (CD34+CD45+) vs DMSO control / proportion of MKPs (CD34+CD41+) produced, increased fold vs DMSO control (set as 1) / proportion of mature megakaryocytes MKs (CD41+CD42+) produced, increased fold vs DMSO control (set as 1): FIG. 7A; for production of megakaryocyte progenitor cells and/or mature megakaryocytes in vitro: screen in the in vitro differentiation system of stem cells. The method, then: BC1 cell line was cultured in E8 medium, under the culture condition of 37° C., 5% CO2, and was passaged at (1:5)-(1:10) every 3-4 days depending on the concentration of cells. The cells were incubated in 0.5 mM EDTA, at room temperature for 2 min, and then were re-suspended and split up and down with E8 medium, and transferred to a culture dish that had been coated with Vitronectin one hour before.
During differentiation, spin-embryoid body (spin-EB) method was used (Ng E S, Davis R, Stanley E G, Elefanty A G, A protocol describing the use of a recombinant protein-based, animal product-free medium (APEL) for human embryonic stem cell differentiation as spin embryoid bodies, Nat Protoc. 2008; 3(5): 768-76.). At Day 0 (D0) after differentiation, iPSCs reached a confluence of above 85% (confluence refers to the percentage of the surface of a culture dish that is covered by adherent cells). After digestion with Accutase at 37° C. for 3 min, the cells were neutralized and split in SFM medium (50% IMDM, 50% Ham's F12, and the added reagents and factors including: human albumin, monothioglycerol, Glutamax, Chemically Defined Lipid Concentrate, L-Ascorbic acid 2-phosphate sesquimagnesium salt hydrate, ITS-X), counted, and centrifuged. After the cells were re-suspended in SFM, cytokines, i.e. 10 μM ROCK inhibitor (Rho-associated protein kinase inhibitor), 10 ng/ml bFGF, and 10 ng/ml BMP4, were added. Cells were seeded to a round-bottom 96-well plate, at 3000 or 5000 cells/50 μl for each well (3000 or 5000 cells were seeded to each well, in a volume of 50 μl for each well). At Day 2, 50 μl SFM medium+10 ng/ml bFGF+10 ng/ml BMP4+100 ng/ml SCF+20 ng/ml VEGF was added to each well. At Day 5, Day 8, and Day 11, 50 μl SFM medium+10 ng/ml bFGF+10 ng/ml BMP4+50 ng/ml SCF+10 ng/ml VEGF was added to each well, wherein 100 μl old medium was pipetted off at Day 8, and 10 ng/ml thrombopoietin (TPO) was added to each well at Day 11.
At Day 14 (D14), single cells (suspending cells) surrounding embryoid bodies (EBs) were collected. The cells were used in the following flow cytometry.
The cell surface markers (CD34, CD45, CD41, CD42) of the collected cells were detected by flow cytometer. The assay was as followed.
The detection was carried out in four tubes: the first tube was a negative tube that was not labeled with any flow antibody; the second tube was labelled with two antibodies CD34-APC and CD45-PE; the third tube was labeled with CD34-APC and CD41-PE; and the fourth tube was labeled with CD41-PE and CD42-APC, wherein CD34^+CD45^+represented the population of hematopoietic stem/progenitor cells (HSPCs), CD34^+CD41^+ represented the population of megakaryocyte progenitor cells (MKPs), and CD41^+CD42^+ represented the population of mature megakaryocytes (MKs).
(1) The BC1 cell line used was the same as the one used in Example 1, and was divided into three groups, wherein two 96-well plates were used for each group, and the cells were seeded at 5000 cells/50 μl to each well. In vitro differentiation was carried out by reference to the steps in Example 1, wherein the step of adding a drug was carried out in accordance with the following steps in I-III groups:
I. At Day 0 after differentiation, 10 μM RO4929097 was added, and DMSO was added to the control well.
III. At Day 2 after differentiation, 10 μM RO4929097, 10 μM L-685458, and 10 μM DAPT were added, respectively; in addition, at Day 5 after differentiation, 10 μM RO4929097, 10 μM L-685458, and 10 μM DAPT were added, respectively.
(2) The cells were collected for flow cytometry analysis, and as to the steps, please refer to the Example 1 above. […]
I. At Day 0 after differentiation, 10 μM RO4929097, and 10 μM DAPT were added, respectively.
II. At Day 2 after differentiation, 10 μM RO4929097, and 10 μM DAPT were added, respectively.
III. At Day 5 after differentiation, 10 μM RO4929097, and 10 μM DAPT were added, respectively.
IV. […]
(Flow cytometry measures light scatter and fluorescence of single cells or particles in a stream.)

In assay [1] the test system is umbilical cord blood-derived CD34+ cells. As to the kind of experiment: megakaryocyte colony forming unit (MK-CFU) experiment, umbilical cord blood-derived CD34+ cells. As to conditions: 10 μM; FIG. 16. The protocol: Megakaryocyte colony forming unit (MK-CFU) experiment: at Day 14, the cells resulted from induced differentiation were collected, and 7,500 single cells were seeded to collagen-based MegaCult-C Kit. After incubation for 10-12 days, the cells were stained with anti-CD41 antibody and counted. CD41^+ megakaryocyte colonies were counted.

Assay [2] shares this test system. As to the kind of experiment: polyploid detection, umbilical cord blood-derived CD34+ cells. The settings on record: 10 μM; DMSO about 16%; FIG. 18. The method, then: iPSC-derived CD34^+ cells (prepared by the method as described in Example 3-2) and umbilical cord blood-derived CD34^+ cells were seeded at 1*10^6 cells per well to 4 ml StemSpan™ SFEM 11+50 ng/ml SCF+50 ng/ml TPO+50 ng/ml IL-6+20 ng/ml IL-3, in a 12-well plate, with 1 ml medium for each well, and 3 wells in total for each cell line, to which 10 μM RO4929097, 10 μM DAPT, and the same volume of DMSO as control, were added, respectively, and the time was recorded as Day 0. The liquid was changed every 3 days, and the culture condition was 37° C., 5% CO2. After iPSC-derived CD34^+ cells were incubated for 6 days, and umbilical cord blood-derived CD34^+ cells were incubated for 9 days, the following experiment was carried out.
Cells were labeled with CD61-FITC flow cytometric antibody at 4° C. for 30 min. The cells were washed with PBS once, and fixed with 70% ethanol at 4° C. overnight. At the second day, the cells were washed with PBS once. After centriguation, 1 ml PBE (PBS containing 2% serum) +100 μg/ml RNase A +50 μg/ml Propidium Iodide, was added, and incubation was carried out in dark at room temperature for 30 min. The cells were washed with PBS once, and the number of cells (≥8N) in CD61^+ cell population was determined by flow cytometry.

[3] abbreviates: 10 μM at Day 5 after in vitro differentiation, found by comparison.

As for `C[C@H](NC(=O)Cc1cc(F)cc(F)c1)C(=O)N[C@H](C(=O)OC(C)(C)C)c1ccccc1` [DAPT], in the assay on normal iPSC BC1 (10 μM added at Day 2), the “decrease of proportion of HSPCs (CD34+CD45+) vs DMSO control” value is given as 35%; the “proportion of MKPs (CD34+CD41+) produced, increased fold vs DMSO control (set as 1)” value was “about 1.5 folds”; the “proportion of mature megakaryocytes MKs (CD41+CD42+) produced, increased fold vs DMSO control (set as 1)” value is “about 2.4 folds”. Besides, in the assay on normal iPSC BC1 (10 μM added at Day 2, FIG. 9), the “number of MKPs (CD34+CD41+) produced, increase vs DMSO control” value (shortened to “number of MKPs … increase vs DMSO control”) was determined as 2.5 folds and the “number of mature megakaryocytes MKs (CD41+CD42+) produced, increase vs DMSO control” value came to 4.3 folds. Moreover, in the assay on normal iPSC BC1 (10 μM added at Day 5, FIG. 7B), the “proportion of HSPCs produced, increased fold vs DMSO control (set as 1)” value is “about 1.5 folds”; the “proportion of MKPs produced, increased fold vs DMSO control (set as 1)” value was “about 1.5 folds”; the “proportion of mature megakaryocytes MKs produced, increased fold vs DMSO control (set as 1)” value is “about 4.1 folds”; the “total number of hematopoietic cells, increase vs control group” value is given as 2.8 folds. In the assay with normal iPSC BC1 (10 μM added at Day 5, FIG. 10), the “number of HSPCs (CD34+CD45+), increase vs DMSO control” value is given as 2.8 folds; the “number of MKPs … increase vs DMSO control” value is given as “about 6.5 folds”; the “number of mature megakaryocytes MKs (CD41+CD42+) produced, increase vs DMSO control” value is given as “about 6.7 folds”. Moreover, in the assay on normal iPSC BC1 (10 μM added at Day 8, FIG. 12), the “number of MKPs … increase vs DMSO control” value was determined as 1.5 folds and the “number of mature megakaryocytes MKs (CD41+CD42+) produced, increase vs DMSO control” value is 1.5 folds. Further, in the assay on normal iPSC BC1 (10 μM added at Day 11, FIG. 13), the “number of mature megakaryocytes MKs (CD41+CD42+) produced, increase vs DMSO control” value is given as 1.3 folds. Besides, in the assay with normal iPSC BC1 (setting [3]), the “promotion of the production of mature megakaryocytes” value is roughly 12 folds and the “promotion of the production of megakaryocyte progenitor cells” value was found to be 4 folds. The “production of megakaryocyte progenitor cells and/or mature megakaryocytes in vitro” value in the assay with normal iPSC BC1 is “significantly promote”. In assay [1], the “ability of megakaryocyte progenitor cells to form mature MK colony (CFU-MK), increase vs control group” value amounted to 2.8 folds. Moreover, in assay [2], the “proportion of polyploid megakaryocytes (≥8N) in CD61+ megakaryocytes” value is given as roughly 12%.
With `CC(C)(C(=O)NCC(F)(F)C(F)(F)F)C(=O)N[C@@H]1C(=O)Nc2ccccc2-c2ccccc21` [RO4929097], in the assay with normal iPSC BC1 (10 μM added at Day 0, FIG. 5), the “proportion of HSPCs (CD34+CD45+)” value was roughly 0%, the “proportion of MKPs (CD34+CD41+)” value is recorded as roughly 0% and the “proportion of MKs (CD41+CD42+)” value is recorded as roughly 0%. For the same compound, the “formation of hematopoietic embryoid body (EB)” value with normal iPSC BC1 (10 μM added at Day 0 after differentiation) is “no hematopoietic embryoid body EB was formed; also recorded: no hematopoietic embryoid body (EB) could be formed”. Moreover, in the assay with normal iPSC BC1 (10 μM added at Day 2, FIG. 6), the “increase of proportion of mature megakaryocytes MKs (CD41+CD42+) produced vs DMSO control” value is 64% and the “increase of proportion of megakaryocyte progenitor cells MKPs (CD34+CD41+) produced vs DMSO control” value was found to be 67%. Moreover, in the assay on normal iPSC BC1 (10 μM added at Day 2), the “decrease of proportion of HSPCs (CD34+CD45+) vs DMSO control” value is 40%; the “proportion of MKPs (CD34+CD41+) produced, increased fold vs DMSO control (set as 1)” value is on record as “about 1.4 folds”; the “proportion of mature megakaryocytes MKs (CD41+CD42+) produced, increased fold vs DMSO control (set as 1)” value was “about 2.5 folds”. Moreover, in the assay with normal iPSC BC1 (10 μM added at Day 2, FIG. 9), the “number of MKPs … increase vs DMSO control” value is given as 2.5 folds and the “number of mature megakaryocytes MKs (CD41+CD42+) produced, increase vs DMSO control” value is reported as 4.3 folds. In addition, in the assay on normal iPSC BC1 (10 μM added at Day 5, FIG. 7B), the “decrease of proportion of HSPCs vs DMSO control” value was 11%; the “proportion of mature megakaryocytes MKs produced, increased fold vs DMSO control (set as 1)” value is recorded as “about 2.6 folds”; the “total number of hematopoietic cells, increase vs control group” value is given as “did not change”. In the assay with normal iPSC BC1 (10 μM added at Day 5, FIG. 10), the “number of HSPCs (CD34+CD45+), increase vs DMSO control” value was found to be 2.8 folds; the “number of MKPs … increase vs DMSO control” value is reported as “about 6.5 folds”; the “number of mature megakaryocytes MKs (CD41+CD42+) produced, increase vs DMSO control” value is listed as “about 6.7 folds”. Besides, in the assay on normal iPSC BC1 (10 μM added at Day 8, FIG. 12), the “number of MKPs … increase vs DMSO control” value is 1.5 folds and the “number of mature megakaryocytes MKs (CD41+CD42+) produced, increase vs DMSO control” value is recorded as 1.5 folds. Further, the “number of mature megakaryocytes MKs (CD41+CD42+) produced, increase vs DMSO control” value in the assay with normal iPSC BC1 (10 μM added at Day 11, FIG. 13) is given as 1.3 folds. The “effect on promoting the production of MKPs and MKs” value in the assay with normal iPSC BC1 (15 μM added at Day 2, FIG. 6, not as significant as 10 μM) is “a certain effect on promoting the production of MKPs and MKs”. The “production of megakaryocyte progenitor cells and/or mature megakaryocytes in vitro” value with normal iPSC BC1 was “significantly promote”. In assay [1], the “ability of megakaryocyte progenitor cells to form mature MK colony (CFU-MK), increase vs control group” value turned out to be 2.8 folds. The “proportion of polyploid megakaryocytes (≥8N) in CD61+ megakaryocytes” value in assay [2] was “about 15%”.
